In PubChem BioAssay (NCI) one finds TGI data, which are given here for 12 compounds.

What all share (test): NCI anticancer screen, dose series, 48 h
Experiment [1] has as its system ACHN renal.
In experiment [2] the test system is CCRF-CEM leukemia.
The subject of experiment [3] is COLO 205 colon.
The subject of experiment [4] is DU-145 prostate.
Experiment [5] has as its system HCC-2998 colon.
In experiment [6] the test system is IGROV1 ovarian.
Experiment [7] has as its system K-562 leukemia.
In experiment [8] the test system is MOLT-4 leukemia.
Experiment [9] concerns NCI-H226 lung.
Experiment [10] has as its system NCI-H460 lung.
Experiment [11] deals with NCI-H522 lung.
The test system of experiment [12] is OVCAR-5 ovarian.
The test system of experiment [13] is PC-3 prostate.
Experiment [14] has as its system RPMI-8226 leukemia.
Experiment [15] relates to SK-MEL-2 melanoma.
The subject of experiment [16] is SK-MEL-5 melanoma.
Experiment [17] deals with SNB-19 CNS.
Experiment [18] relates to SR leukemia.
The subject of experiment [19] is U251 CNS.
The test system of experiment [20] is HS 578T breast.

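96-well plates; 48 h exposure; 5 concentrations. Endpoints by linear interpolation between flanking doses. Not reached: highest tested concentration assigned. The concentration for full growth arrest is given as TGI.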

As to `CCN(CCCN(CC)C(=O)Nc1ccccc1)C(=O)Nc1ccccc1`, the TGI in [1], in [2], in experiment [3], in experiment [4], in experiment [5] and in experiment [6] was greater than 100 µM in each case. Further, the TGI in [7], in [8], in experiment [9], in experiment [10], in experiment [11] and in [12] was greater than 100 µM each time. For the same compound, the TGI in experiment [13], in experiment [14], in experiment [15], in experiment [16], in experiment [17] and in experiment [18] was greater than 100 µM throughout. Moreover, the TGI in experiment [19] was greater than 100 µM.
Turning to `CCN1CN(c2ccccc2)C2(CCN(CCCSc3ccc(F)cc3)CC2)C1=O`, the TGI in experiment [1] was 24.1 µM; in experiment [2], 24.6 µM; in experiment [3] it was 6.48 µM; in [4], 17.9 µM; in [6] it was 19.7 µM; in experiment [7] it was 37.1 µM. Also, the TGI in [8] is 23.7 µM; in [9], 33.7 µM; in [11], 30 µM; in [12], 20.5 µM; in [13], 28.1 µM; in [14] it was 46.8 µM. Besides, the TGI amounted to 13.8 µM in [16], 24.3 µM in experiment [17] and 36.5 µM in experiment [18].
For `O=c1c2c(c1=O)C1(SCCCS1)c1cc(Cl)ccc1O2`, the TGI in experiment [1], in experiment [2], in experiment [3], in [4], in [5] and in [6] was greater than 100 µM in each case. The TGI in [7], in experiment [8], in experiment [9], in experiment [10], in experiment [11] and in [12] was greater than 100 µM each time. For the same compound, the TGI in [13], in [14], in [15], in [16], in experiment [17] and in experiment [19] was greater than 100 µM throughout.
Consider `CC(C)(C)[Si](C)(C)OCC1OC(n2ccc(=O)[nH]c2=O)C(O[Si](C)(C)C(C)(C)C)[C@@]12O[C@H]2C(N)=O` (some centres not stated), for which the TGI in experiment [1] is 16.5 µM; in experiment [3] it was 24.8 µM; in [4], 17.6 µM; in experiment [5], greater than 100 µM; in experiment [6], 8.66 µM; in experiment [8] it was greater than 100 µM. Also, the TGI was 11.4 µM in experiment [9]; 20.4 µM in experiment [10]; 7.35 µM in experiment [11]; 40.6 µM in [12]; 17.8 µM in experiment [13]; greater than 100 µM in experiment [14]. The TGI was determined as 34.6 µM in experiment [15], 16.5 µM in experiment [16], 24.1 µM in [17] and 23.2 µM in experiment [19].
On to `O=C(c1ccco1)n1c2ccc(Br)cc2c2nc3ccccc3nc21`, for which the TGI in [1], in experiment [2], in [3], in experiment [4], in experiment [5] and in experiment [6] was greater than 100 µM in each case. The TGI is greater than 100 µM in experiment [7]; greater than 100 µM in experiment [8]; greater than 100 µM in experiment [9]; greater than 100 µM in experiment [10]; 41.5 µM in experiment [11]; greater than 100 µM in [12]. Besides, the TGI in experiment [13] was greater than 100 µM; in [14], 54.6 µM; in experiment [15], greater than 100 µM; in [16], greater than 100 µM; in experiment [17] it was greater than 100 µM; in experiment [18] it was greater than 100 µM. This compound displayed a TGI in [19] greater than 100 µM.
Turning to `N#CCC(=O)c1cc(OCc2cc(OCc3ccc(Br)cc3)cc(OCc3ccc(Br)cc3)c2)cc(OCc2cc(OCc3ccc(Br)cc3)cc(OCc3ccc(Br)cc3)c2)c1`, the TGI in [1], in experiment [3], in [4], in experiment [5], in experiment [7] and in experiment [9] was greater than 100 µM in each case. Besides, the TGI in experiment [10], in experiment [11], in [12], in experiment [13], in experiment [14] and in experiment [15] was greater than 100 µM in each case. The TGI in [16], in [17] and in experiment [19] was greater than 100 µM each time.
For `C/C(=N\Nc1ccccc1Br)c1cccc(/C(C)=N/Nc2ccccc2Br)n1`, the TGI in experiment [1], in [2], in experiment [3], in [4], in experiment [5] and in [6] was greater than 100 µM in each case. Besides, the TGI in experiment [7], in experiment [8], in experiment [9], in experiment [10], in experiment [12] and in [13] was greater than 100 µM in each case. The TGI in experiment [14], in experiment [15], in experiment [16], in experiment [17], in experiment [18] and in experiment [19] was greater than 100 µM in each case.
Consider `NC1CC(N)c2c(Br)sc(Br)c21` (configuration not stated), for which the TGI in [1], in experiment [2], in experiment [3], in experiment [4], in [5] and in experiment [20] was greater than 100 µM in each case. Further, the TGI in [6], in [7], in experiment [8], in experiment [9], in experiment [10] and in experiment [11] was greater than 100 µM throughout. For the same compound, the TGI in [12], in [15], in experiment [16], in [18] and in experiment [19] was greater than 100 µM in each case.
Take `N#Cc1c(-c2ccc(Cl)cc2)c(C#N)c(=O)n(NS(=O)(=O)c2ccccc2)c1S`: the TGI in [1] was 85.3 µM; in experiment [2] it was greater than 100 µM; in experiment [3] it was greater than 100 µM; in experiment [4], greater than 100 µM; in experiment [6], 65.5 µM; in [7], greater than 100 µM. Moreover, the TGI in experiment [8] was greater than 100 µM; in [9] it was 77.1 µM; in experiment [10], 46 µM; in experiment [11], 47.4 µM; in experiment [12], greater than 100 µM; in experiment [13] it was greater than 100 µM. The TGI was 75.6 µM in experiment [14]; greater than 100 µM in experiment [15]; 33.3 µM in experiment [16]; 56.5 µM in [18]; 71.9 µM in [19].
In the case of `COc1cc(/C=C/C(=O)OC2C(O)C3CC(OC(=O)c4cc(OC)c(OC)c(OC)c4)CC2N3C)cc(OC)c1OC` (configuration not stated), the TGI was greater than 50 µM in experiment [1]; greater than 50 µM in [2]; 42.5 µM in [3]; greater than 50 µM in [4]; greater than 50 µM in experiment [5]; 39.8 µM in experiment [6]. Also, the TGI in experiment [7], in experiment [8], in [9], in [10], in [11] and in experiment [12] was greater than 50 µM in each case. In addition, the TGI in [13] was greater than 50 µM; in [14] it was greater than 50 µM; in [15], greater than 50 µM; in experiment [16], greater than 50 µM; in [17], 39.9 µM; in [18] it was 33.3 µM. Further, the TGI in experiment [19] is greater than 50 µM.
Turning to `NC1=NNC2(C(=O)N1)c1ccccc1-c1ccccc12`, the TGI in experiment [1], in experiment [2], in experiment [3], in [5], in experiment [6] and in experiment [7] was greater than 10 µM each time. Further, the TGI in experiment [8], in [9], in experiment [10], in [12], in [13] and in experiment [14] was greater than 10 µM in each case. The TGI in experiment [15], in [16], in experiment [17], in experiment [18] and in [19] was greater than 10 µM in each case.
For the compound `COc1ccc(-c2cc(-c3ccc(Nc4ccnc5cc(Cl)ccc45)cc3)nc(N)c2C#N)cc1`, the TGI in experiment [1], in [3], in experiment [4], in [5], in experiment [6] and in experiment [7] was greater than 100 µM each time. For the same compound, the TGI in [8], in [9], in experiment [10], in [11], in experiment [12] and in experiment [13] was greater than 100 µM each time. Besides, the TGI in experiment [14], in experiment [15], in experiment [17], in experiment [18] and in experiment [19] was greater than 100 µM in each case.
